How the values were obtained:
Assay in all cases: relative viability (nuclei count vs DMSO), 5 days (fraction); higher = more cells survive
Staurosporine + Olaparib = compound: CN[C@@H]1C[C@H]2O[C@@](C)([C@@H]1OC)n1c3ccccc3c3c4c(c5c6ccccc6n2c5c31)C(=O)NC4 [Staurosporine] + O=C(c1cc(Cc2n[nH]c(=O)c3ccccc23)ccc1F)N1CCN(C(=O)C2CC2)CC1 [Olaparib] (partner 8 µM)
Method in brief: (§1)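 Lung cancer cell lines in 1536-well plates were dosed by pin tool the day after seeding, either with one drug alone or with a fixed anchor-drug dose plus five library-drug doses (not always all listed) in √10 steps. After 5 days, cells were fixed and their nuclei stained in one step (final 0.05% Triton X-100, 1% formaldehyde, 1 ug/ml Hoechst), then counted on 4× images. Relative viability is the nuclei count in treated wells divided by that in vehicle wells. Values are medians of duplicate plates.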

Sulindac + Palbociclib = compound: CC1=C(CC(=O)O)c2cc(F)ccc2/C1=C\c1ccc([S+](C)[O-])cc1 [Sulindac] + CC(=O)c1c(C)c2cnc(Nc3ccc(N4CCNCC4)cn3)nc2n(C2CCCC2)c1=O [Palbociclib] (partner 0.5 µM)
Method in brief: as §1

[1] = compound: CN[C@@H]1C[C@H]2O[C@@](C)([C@@H]1OC)n1c3ccccc3c3c4c(c5c6ccccc6n2c5c31)C(=O)NC4 [Staurosporine] + N=C(N)NC(=N)NCCc1ccccc1 [Phenformin] (partner 250 µM)
Method in brief: as §1

[2] = compound: O=c1[nH]cc(F)c(=O)[nH]1 [5-Fluorouracil] + N=C(N)NC(=N)NCCc1ccccc1 [Phenformin] (partner 250 µM)
Method in brief: as §1

Row | Cell Line | relative viability (Staurosporine + Olaparib; first compound 0.005 µM) | relative viability (Staurosporine + Olaparib; first compound 0.01581 µM) | relative viability (Staurosporine + Olaparib; first compound 0.05 µM) | relative viability (Staurosporine + Olaparib; first compound 0.1581 µM) | relative viability (Staurosporine + Olaparib; first compound 0.5 µM) | relative viability (Sulindac + Palbociclib; first compound 0.08 µM) | relative viability (Sulindac + Palbociclib; first compound 0.253 µM) | relative viability (Sulindac + Palbociclib; first compound 0.8 µM) | relative viability (Sulindac + Palbociclib; first compound 2.53 µM) | relative viability (Sulindac + Palbociclib; first compound 8 µM) | relative viability ([1]; first compound 0.005 µM) | relative viability ([1]; first compound 0.01581 µM) | relative viability ([1]; first compound 0.05 µM) | relative viability ([1]; first compound 0.1581 µM) | relative viability ([1]; first compound 0.5 µM) | relative viability ([2]; first compound 0.02 µM) | relative viability ([2]; first compound 0.2 µM) | relative viability ([2]; first compound 0.6325 µM) | relative viability ([2]; first compound 2 µM)
1 | IA-LM | 0.562 | 0.51 | 0.412 | 0.215 | 0.0689 |  |  |  |  |  |  |  |  |  |  |  |  |  | 
2 | NCI-H441 | 0.352 | 0.319 | 0.205 | 0.176 | 0.115 | 0.193 | 0.183 | 0.188 | 0.207 | 0.195 | 0.817 | 0.259 | 0.246 | 0.202 | 0.102 | 0.927 | 0.979 | 0.553 | 0.387
3 | NCI-H1915 | 0.214 | 0.124 | 0.159 | 0.0952 | 0.0708 | 0.566 | 0.538 | 0.574 | 0.517 | 0.506 | 0.332 | 0.087 | 0.181 | 0.0813 | 0.0841 |  | 0.34 | 0.355 | 0.361
4 | LXF-289 | 1.1 | 0.193 | 0.395 | 0.164 | 0.227 | 0.685 | 0.672 | 0.556 | 0.659 | 0.624 | 0.325 | 0.0737 | 0.172 | 0.0511 | 0.0502 | 0.507 | 0.428 | 0.332 | 0.297
5 | HCC-827 | 0.666 | 0.5 | 0.467 | 0.322 | 0.22 | 0.496 | 0.552 | 0.48 | 0.547 | 0.465 | 0.43 | 0.35 | 0.214 | 0.167 |  | 0.363 | 0.37 | 0.414 | 0.29
6 | EMC-BAC-2 | 0.245 | 0.162 | 0.172 | 0.177 | 0.19 | 0.532 | 0.512 | 0.482 | 0.505 | 0.566 | 0.252 | 0.179 | 0.17 | 0.189 | 0.164 | 0.625 | 0.542 | 0.498 | 0.51
7 | NCI-H647 | 0.275 | 0.199 | 0.0866 | 0.0394 | 0.0357 | 0.462 | 0.469 | 0.339 | 0.431 | 0.439 | 0.236 | 0.0676 | 0.0846 | 0.0492 | 0.0636 | 0.504 | 0.495 | 0.544 | 0.399
8 | NCI-H1792 | 0.147 | 0.0705 | 0.0822 | 0.097 | 0.0652 | 0.646 | 0.734 |  | 0.601 | 0.635 | 0.255 | 0.0732 | 0.0598 | 0.0859 | 0.0427 | 0.199 | 0.365 | 0.177 | 0.122
9 | NCI-H2009 | 0.532 | 0.248 | 0.0909 | 0.112 | 0.0765 | 0.176 | 0.209 | 0.234 | 0.17 | 0.242 | 0.207 | 0.188 | 0.216 | 0.131 | 0.0831 | 0.551 | 0.548 | 0.438 | 0.401
10 | NCI-H2347 | 0.481 | 0.319 | 0.39 | 0.371 | 0.292 | 0.42 | 0.459 | 0.453 | 0.379 | 0.461 | 0.269 | 0.253 | 0.201 | 0.216 | 0.165 | 0.296 | 0.489 | 0.24 | 0.328
11 | NCI-H522 | 0.669 | 0.685 | 0.53 | 0.471 | 0.429 | 0.972 | 0.955 | 0.818 | 1.17 | 1.04 | 0.783 |  | 0.594 | 0.41 | 0.405 | 0.584 | 0.637 | 0.682 | 0.678
12 | NCI-H1437 | 0.506 | 0.456 | 0.401 | 0.168 | 0.106 | 0.358 | 0.296 | 0.294 | 0.314 | 0.333 | 0.247 |  | 0.187 | 0.11 | 0.118 | 0.238 | 0.192 | 0.137 | 0.173
13 | SK-MES-1 | 0.299 | 0.192 | 0.158 | 0.132 | 0.156 | 0.313 | 0.364 | 0.353 | 0.373 | 0.315 | 0.345 | 0.267 | 0.185 | 0.132 | 0.219 | 0.748 | 0.4 | 0.331 | 0.242
14 | NCI-H3122 | 0.575 |  | 0.481 |  | 0.281 | 0.161 | 0.183 | 0.218 | 0.204 | 0.205 | 0.283 |  | 0.335 | 0.12 | 0.0915 | 0.366 | 0.349 | 0.21 | 0.174
15 | NCI-H1299 | 0.493 | 0.263 | 0.251 | 0.117 |  |  |  |  |  |  |  |  |  |  |  |  |  |  | 
16 | NCI-H1563 |  |  |  |  |  |  |  |  |  |  | 0.566 | 0.533 | 0.577 | 0.506 | 0.416 | 0.713 | 0.611 | 0.641 | 0.646
17 | Calu-6 | 0.483 | 0.294 | 0.201 | 0.106 | 0.092 |  |  |  |  |  |  |  |  |  |  |  |  |  | 
18 | EBC-1 | 0.485 | 0.184 | 0.165 | 0.159 | 0.149 |  |  |  |  |  |  |  |  |  |  |  |  |  | 
19 | NCI-H596 | 0.854 | 0.542 | 0.302 | 0.25 | 0.297 |  |  |  |  |  | 0.797 | 0.323 | 0.383 | 0.249 | 0.194 | 0.863 | 0.676 | 0.643 | 0.508
20 | NCI-H1648 | 0.893 | 0.376 | 0.311 | 0.257 | 0.259 | 0.275 | 0.268 |  | 0.242 | 0.282 |  |  |  |  |  |  |  |  | 
21 | NCI-H1703 | 0.269 | 0.165 | 0.237 | 0.112 | 0.106 |  |  |  |  |  |  |  |  |  |  |  |  |  | 
22 | A549 | 0.0788 | 0.0424 | 0.126 | 0.034 | 0.0268 |  |  |  |  |  | 0.127 | 0.025 | 0.0465 | 0.031 | 0.0233 | 0.172 | 0.258 | 0.153 | 0.0868

Source: the supplement of paper PMC10307832
